Experiments:
[1] = test system: NK cells; experiment: Ex vivo NK cell effector function in tumor-bearing lungs (IFNγ, CD107a); set-up: species or system mouse
Experimental: FIG. 3. Upregulation of surface MR1 on tumor cells suppresses NK cell function through MAIT cells. (A) Schematic to analyze NK effector function in the lungs of C57BL/6 WT or MR1^−/− mice injected with 5-OP-RU-pulsed B16F10 or LWT1 cells. On day 5 relative to tumor inoculation, lungs were harvested from the indicated groups of mice (n=5-6/group) and stimulated with PMA/ionomycin plus protein transport inhibitors and NK cell effector function was assessed by flow cytometry. (B) Representative contour plots of IFNγ staining in NK cells (NKp46^+ NK1.1^+ TCRβ^− CD45.2^+) and (C) the proportion and MFI of IFNγ^+ NK cells amongst total NK cells in B16F10-bearing lungs. (D) Representative contour plots of CD107a staining in NK cells and (E) the proportion and MFI of CD107a^+ NK cells amongst total NK cells in B16F10 tumor-bearing lungs. (F) Representative contour plots of IFNγ staining in NK cells and (G) the proportion and MFI of IFNγ^+ NK cells amongst total NK cells in LWT1 tumor-bearing lungs. (H) Representative contour plots of CD107a staining in NK cells and (I) the proportion and MFI of CD107a^+ NK cells amongst total NK cells in the LWT1-bearing lungs. Data presented as mean±SEM. Significant differences between groups as indicated by crossbars were determined using a one-way ANOVA followed by Tukey's post-hoc test, *p<0.05, **p<0.01, ***p<0.001, ****p<0.0001.
FIG. 4. Upregulation of MR1 on B16F10 activates MAIT cells to suppress NK cell effector function through IL-17. (A) Schematic to analyze MAIT or NK cell effector function in the lungs of C57BL/6 WT or MR1^−/− mice injected with 5-OP-RU- or DMSO-stimulated B16F10 melanoma cells. On day 5 relative to tumor inoculation, lungs were harvested and stimulated with PMA/ionomycin plus protein transport inhibitors for 4 hours and MAIT or NK cell function was assessed by flow cytometry. (B) The proportion of CD69^+ MAIT cells amongst total MAIT cells (B220^− F4/80^− MR1-5-OP-RU tetramer^+ TCRβ^+) in naïve or tumor-bearing lungs. Data presented as mean±SEM. (C) Representative dot plot of IL-17 expression by MAIT cells. The (D) proportion of IL-17^+ MAIT cells amongst total MAIT cells in the lungs of naïve and tumor-bearing mice as indicated. Data presented as mean±SEM. (E) Representative dot plot of TNF expression by MAIT cells. The (F) proportion of TNF MAIT cells and (G) IFNγ^+ MAIT cells amongst total MAIT cells in the lungs of naïve and tumor-bearing mice as indicated. (H, I) On day 5 relative to tumor inoculation, lungs were harvested (n=6/group) and stimulated with PMA/ionomycin plus protein transport inhibitors for 3 hours and NK cell function was assessed by flow cytometry. The proportion of IFNγ^+ NK cells and CD107a^+ NK cells amongst total NK cells (NKp46^+ NK1.1^+ TCRβ^− CD45.2^+) in tumor-bearing C57BL/6 WT or IL-17^−/− mice. Data presented as mean±SEM. (J) Groups of WT or MR1^−/− mice (n=4-6/group) were injected i.v. with 1×10^5 B16F10 melanoma cells. In some groups, sorted MAIT cells (2×10^5 cells/mouse) from C57BL/6 WT or IL-17A^−/− mice were i.v. injected into the indicated groups of mice one day before tumor inoculation. On day 14 relative to tumor cell inoculation, lungs were harvested and the metastatic burden was quantified by counting colonies on the lung surface. Data presented as mean±SEM. Data pooled from two independent experiments for (B, D, F, G). Experiments were performed once for (H-K). Significant differences between groups as indicated by crossbars were determined using a one-way ANOVA followed by Tukey's post-hoc test (B, D, F, J), or a Mann-Whitney test (H, I), *p<0.05, **p<0.01, ***p<0.001, ****p<0.0001.
Single cell suspensions from lungs of the indicated groups were incubated in a 96-well U-bottom plate in complete RPMI 1640 media. Cells were incubated in the presence or absence of cell stimulation cocktail (PMA/ionomycin) plus protein transport inhibitors (Golgistop and Golgiplug) (1000 times dilution) for 3-4 hours as indicated. […]

[2] = test system: B16F10 cells; experiment: B16F10 proliferative and migratory assays in vitro; format: cell-based, mouse; conditions: co-culture of B16F10 with ligand

Question: CC(=O)C=Nc1c(NC[C@H](O)[C@H](O)[C@H](O)CO)[nH]c(=O)[nH]c1=O [5-OP-RU] was tested. Which “proportions of IFNγ producing and CD107a expressing NK cells” value ([1]; IL-17A-/- mice, treated vs DMSO-treated B16F10, day 5) did it give?
Answer: The value was “this reduction was not observed”.

Question: What about the “NK cell effector function” value ([1]; MR1-/- mice that received treated LWT1) of the same compound?
Answer: The value was “did not manifest”.

Question: What about the “NK cell effector function” value ([1]; WT mice that received treated LWT1) of the same compound?
Answer: Its value is “suppression of NK cell effector function was observed”.

Question: What about the NK cell function ([1]; lungs of MR1-/- mice, treated vs DMSO-treated B16F10, day 5) of the same compound?
Answer: The NK cell function was “not suppressed”.

Question: What about the “proportions of NK cells producing IFNγ and MFI” value ([1]; lungs of WT mice bearing treated vs DMSO-treated B16F10, day 5) of the same compound?
Answer: Its value is “significantly decreased”.

Question: And the “proportions of NK cells expressing CD107a and expression levels” value ([1]; lungs of WT mice, treated vs DMSO-treated B16F10, day 5)?
Answer: Its value is “significantly decreased”.

Question: What about the “B16F10 biology as measured by proliferative or migratory assays” value [2] of the same compound?
Answer: Its value is “did not alter the biology of these cells”.

Source: patent US20220213198A1, “METHOD OF TREATMENT” (The Council of the Queensland Institute of Medical Research, priority 2019, published 2022)
